pIC50: −log10 of the molar value. Activity calls are given as the source filed them. No rule for the calls is given here.
Experiments:
Experiment in all cases: PAD1-3 enzyme inhibition potency, late-stage follow-up, biochemical, colorimetric, BAEE substrate, recombinant PAD1-3 (AID 588462)
[1] = target: Protein-arginine deiminase type-2 (Homo sapiens) (UniProt Q9Y2J8); details: recombinant PAD1-3, BAEE citrullination, colorimetric absorbance; PAD2
[2] = target: Protein-arginine deiminase type-3 (Homo sapiens) (UniProt Q9ULW8); details: recombinant PAD1-3, BAEE citrullination, colorimetric absorbance; PAD3
[3] = target: Protein-arginine deiminase type-1 (Homo sapiens) (UniProt Q9ULC6); details: recombinant PAD1-3, BAEE citrullination, colorimetric absorbance; PAD1
Protein-arginine deiminase type-1 (Homo sapiens), sequence (Q9ULC6 whole entry, looked up): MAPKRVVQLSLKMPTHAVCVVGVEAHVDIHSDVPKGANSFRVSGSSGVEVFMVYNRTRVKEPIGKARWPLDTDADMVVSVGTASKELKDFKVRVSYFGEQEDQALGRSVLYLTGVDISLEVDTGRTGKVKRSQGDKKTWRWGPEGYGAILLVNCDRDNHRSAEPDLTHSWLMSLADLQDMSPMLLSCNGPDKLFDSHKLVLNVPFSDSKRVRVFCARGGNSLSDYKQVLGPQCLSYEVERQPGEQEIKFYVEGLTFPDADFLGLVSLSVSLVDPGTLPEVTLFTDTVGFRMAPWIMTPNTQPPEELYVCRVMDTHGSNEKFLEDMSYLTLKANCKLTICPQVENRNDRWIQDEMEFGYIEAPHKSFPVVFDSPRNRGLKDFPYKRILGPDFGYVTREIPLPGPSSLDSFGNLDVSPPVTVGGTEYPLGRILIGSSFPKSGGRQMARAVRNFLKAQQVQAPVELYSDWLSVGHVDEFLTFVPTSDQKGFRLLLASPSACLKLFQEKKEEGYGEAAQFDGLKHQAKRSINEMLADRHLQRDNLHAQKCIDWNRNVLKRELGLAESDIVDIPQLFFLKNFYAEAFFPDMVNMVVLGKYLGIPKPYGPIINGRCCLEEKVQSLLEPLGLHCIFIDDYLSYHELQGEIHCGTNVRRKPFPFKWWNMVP

Protein-arginine deiminase type-2 (Homo sapiens), sequence (Q9Y2J8 whole entry, looked up): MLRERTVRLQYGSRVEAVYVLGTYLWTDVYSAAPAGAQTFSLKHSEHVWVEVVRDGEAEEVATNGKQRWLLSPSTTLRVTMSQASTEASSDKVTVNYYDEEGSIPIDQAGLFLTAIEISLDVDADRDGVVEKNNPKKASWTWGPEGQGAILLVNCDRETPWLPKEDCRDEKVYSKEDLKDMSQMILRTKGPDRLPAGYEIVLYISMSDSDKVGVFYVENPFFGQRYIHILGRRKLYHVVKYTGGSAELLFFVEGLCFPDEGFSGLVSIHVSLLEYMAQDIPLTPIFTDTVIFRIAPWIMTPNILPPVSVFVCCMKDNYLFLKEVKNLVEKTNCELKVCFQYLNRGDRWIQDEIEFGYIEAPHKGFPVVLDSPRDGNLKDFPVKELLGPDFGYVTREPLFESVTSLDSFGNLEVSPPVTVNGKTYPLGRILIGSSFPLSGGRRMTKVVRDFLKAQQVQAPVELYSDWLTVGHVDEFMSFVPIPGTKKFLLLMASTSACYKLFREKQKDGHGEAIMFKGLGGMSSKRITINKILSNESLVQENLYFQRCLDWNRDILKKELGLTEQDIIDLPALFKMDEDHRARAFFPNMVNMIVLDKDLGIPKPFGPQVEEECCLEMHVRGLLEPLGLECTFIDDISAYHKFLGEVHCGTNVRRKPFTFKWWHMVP
Protein-arginine deiminase type-3 (Homo sapiens), sequence (Q9ULW8 whole entry, looked up): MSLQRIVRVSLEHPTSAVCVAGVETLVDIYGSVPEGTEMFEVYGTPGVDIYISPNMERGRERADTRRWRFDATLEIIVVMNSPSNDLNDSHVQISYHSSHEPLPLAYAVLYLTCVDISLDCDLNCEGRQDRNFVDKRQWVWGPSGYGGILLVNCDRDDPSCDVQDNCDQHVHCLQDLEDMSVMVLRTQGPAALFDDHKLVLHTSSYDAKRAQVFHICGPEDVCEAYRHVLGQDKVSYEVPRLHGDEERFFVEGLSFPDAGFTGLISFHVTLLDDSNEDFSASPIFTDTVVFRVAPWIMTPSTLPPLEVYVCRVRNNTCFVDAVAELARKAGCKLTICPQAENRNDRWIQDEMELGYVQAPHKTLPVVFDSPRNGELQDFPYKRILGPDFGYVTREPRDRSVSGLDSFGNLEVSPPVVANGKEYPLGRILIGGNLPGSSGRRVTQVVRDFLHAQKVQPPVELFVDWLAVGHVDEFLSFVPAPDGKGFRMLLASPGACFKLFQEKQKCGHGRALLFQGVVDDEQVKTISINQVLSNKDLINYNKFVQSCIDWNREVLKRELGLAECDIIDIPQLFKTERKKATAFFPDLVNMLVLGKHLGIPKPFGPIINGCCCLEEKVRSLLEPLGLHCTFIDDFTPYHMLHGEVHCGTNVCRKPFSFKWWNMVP

Q: What does the source list for COC1=C(N)C(=O)c2nc(-c3nc(C(=O)O)c(C)c(-c4ccc(OC)c(OC)c4O)c3N)ccc2C1=O?
A: IC50 [1]: inactive; pIC50 [2]: 6.37; IC50 [3]: inactive
